The values that follow come from ChEMBL document CHEMBL1144340, “QSAR for phospholipase A2 inhibitions by 1-acyloxy-3-N-n-octylcarbamyl-benzenes” (Bioorg Med Chem Lett, 2005).

The target of the test is T1, Acidic phospholipase A2 CM-I (Naja mossambica, UniProt P00602).
T1 sequence (P00602 whole entry): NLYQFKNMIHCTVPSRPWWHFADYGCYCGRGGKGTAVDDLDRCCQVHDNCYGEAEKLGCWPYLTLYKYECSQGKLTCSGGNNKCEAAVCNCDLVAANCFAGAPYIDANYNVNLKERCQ
The experiment in a line: Inhibitory activity against phospholipase A2.
The molecule `CCCCCCCCNC(=O)Oc1cccc(OC(=O)Cc2ccccc2)c1` came in with an inhibition constant (Ki) of 73 µM. The molecule `CCCCCCCCNC(=O)Oc1cccc(OC(=O)c2ccccc2)c1` registered an inhibition constant (Ki) of 95 µM. With `CCCCCCCCNC(=O)Oc1cccc(OC(=O)C(c2ccccc2)(c2ccccc2)c2ccccc2)c1` the figure was 38 µM; with `CCCCCCCCNC(=O)Oc1cccc(OC(=O)CCCCCCC)c1`, 27 µM.

In the case of `CCCCCCCCNC(=O)Oc1cccc(OC(=O)CCCC)c1`, the inhibition constant (Ki) worked out at 75 µM.

In turn, `CCCCCCCCNC(=O)Oc1cccc(OC(=O)C(C)(C)C)c1` displayed an inhibition constant (Ki) of 55 µM. Take `CCCCCCCCCCCCCCCC(=O)Oc1cccc(OC(=O)NCCCCCCCC)c1`: affinity was put at a Ki of 9.6 µM. With `CCCCCCCCNC(=O)Oc1cccc(OC(=O)C(Cl)(Cl)Cl)c1` the figure was 120 µM. On to `CCCCCCCCNC(=O)Oc1cccc(OC(C)=O)c1`, for which the inhibitory constant (Ki) is 98 µM.

In general, Ki refers to the dissociation constant of the complex between target and ligand, obtained from inhibition or displacement. A higher Ki goes with a looser hold on the target.
